# Source: patent publication US7763426B2, “Probes and methods for detection of Escheridia coli and antibiotic resistance” (priority 2004, dated 2010)
# {Fluorescein} = fluorescein label (binding site for anti-fluorescein Fab-HRP); {Biotin} = biotin (capture probe anchor)
# Test system: bacterial 16S rRNA
# Experiment: Amperometric detection of bacterial 16S rRNA, statements over several targets (Examples 2, 3)
# Format: binding
# Conditions: previous studies; no gap between hybridization sites
# Protocol: Sensor characterization and surface functional layer preparation. Microfabricated electrochemical sensor arrays with an alkanethiolate self-assembled monolayer (SAM) were obtained from GeneFluidics (Monterey Park, Calif.). SAM integrity was confirmed by cyclic voltammetry (CV) (1) using a 16-channel potentiostat (GeneFluidics). After CV characterization, sensor arrays were washed and dried. Washing steps were carried out by applying a stream of deionized H2O to the sensor surface for approximately 2-3 sec followed by 5 sec of drying under a stream of nitrogen. To functionalize the sensor surface, 2.5 μl of 0.5 U/ml streptavidin (Calbiochem, San Diego, Calif.) in 100 mM phosphate buffered saline, pH 7.4 was added to the alkanethiol activated sensors, incubated for 10 min at room temperature and washed off. Biotinylated capture probes (2.5 μl, 1 μM in GeneFluidics' Probe Diluent) were added to the streptavidin-coated sensors. […]
# Amperometric Detection of bacterial 16S rRNA. […] Amperometric current vs. time was measured using a multichannel potentiostat (GeneFluidics). The voltage was fixed at −200 mV (vs. reference), and the electroreduction current was measured at 60 sec after the HRP redox reaction reached steady state. All samples were analyzed in duplicate. […] Positive signals are determined by comparing the signals with the background using paired T test. […]
substance,measurement,value
"UNI: Universal Bacterial probe pair: capture 797 (27 mer) SEQ ID NO: 13, detector 766 (31 mer) SEQ ID NO: 14 (DNA 1 CATCGTTTACGGCGTGGACTACCAGGG; DNA 2 TATCTAATCCTGTTTGCTCCCCACGCTTTCG; DNA 1: DNA, 5' {Biotin}, backbone and methylation of C not given here; DNA 2: DNA, 5' {Fluorescein}, backbone and methylation of C not given here)",higher signals than the species-specific probes with 6 bp gap,1.5-4 fold
